ChEMBL document CHEMBL1201862, “PubChem BioAssay data set” (2004)
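Five compound concentrations were applied to cells in 96-well plates for 48 hours; endpoints were derived by simple linear interpolation of the resulting dose-response curve. GI50: concentration for 50% inhibition of growth.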 Calls of active or inactive are those of the source. Rule as the data show it: active = GI50 up to about 1.1 µM and inactive = higher.

Columns and labels:
Test in all cases: DTP human tumour cell line panel, 48 h
786-0 = test system: 786-0
A498 = test system: A498
A549 = test system: A549
ACHN = test system: ACHN
BT-549 = test system: BT-549
CAKI-1 = test system: CAKI-1
CCRF-CEM = test system: CCRF-CEM
COLO 205 = test system: COLO 205
DU-145 = test system: DU-145
EKVX = test system: EKVX
HCC 2998 = test system: HCC 2998
HCT-116 = test system: HCT-116
HCT-15 = test system: HCT-15
HL-60 = test system: HL-60
HOP-62 = test system: HOP-62
HOP-92 = test system: HOP-92
HT-29 = test system: HT-29
Hs-578T = test system: Hs-578T
IGROV-1 = test system: IGROV-1
K562 = test system: K562
KM12 = test system: KM12
LOX IMVI = test system: LOX IMVI
M14 = test system: M14
MCF7 = test system: MCF7
MDA-MB-435 = test system: MDA-MB-435
MDA-N = test system: MDA-N
MOLT-4 = test system: MOLT-4
Malme-3M = test system: Malme-3M
NCI-H226 = test system: NCI-H226
NCI-H23 = test system: NCI-H23
NCI-H460 = test system: NCI-H460
NCI-H522 = test system: NCI-H522
NCI/ADR-RES = test system: NCI/ADR-RES
OVCAR-3 = test system: OVCAR-3
OVCAR-4 = test system: OVCAR-4
OVCAR-5 = test system: OVCAR-5
OVCAR-8 = test system: OVCAR-8
PC-3 = test system: PC-3
RPMI-8226 = test system: RPMI-8226
RXF 393 = test system: RXF 393
SF-268 = test system: SF-268
SF-295 = test system: SF-295
SK-MEL-28 = test system: SK-MEL-28
SK-MEL-5 = test system: SK-MEL-5
SN12C = test system: SN12C
SNB-19 = test system: SNB-19
SR = test system: SR
SW-620 = test system: SW-620
U-251 = test system: U-251
UACC-257 = test system: UACC-257
UACC-62 = test system: UACC-62
UO-31 = test system: UO-31
MDA-MB-231 = test system: MDA-MB-231
SF-539 = test system: SF-539
SK-MEL-2 = test system: SK-MEL-2
SK-OV-3 = test system: SK-OV-3
T47D = test system: T47D
TK-10 = test system: TK-10
SNB-75 = test system: SNB-75

Measured: GI50

COc1ccc(-c2c(C(=O)Nc3ccccc3)c(-c3ccccc3)n(C3OC(CO)C(O)C(O)C3O)c(=S)c2C#N)cc1 (stereo not given)
active: BT-549 0.719 µM
inactive: 786-0 > 100 µM | A498 > 100 µM | A549 > 100 µM | ACHN > 100 µM | CAKI-1 > 100 µM | CCRF-CEM > 100 µM | COLO 205 > 100 µM | DU-145 > 100 µM | EKVX > 100 µM | HCC 2998 > 100 µM | HCT-116 > 100 µM | HL-60 > 100 µM | HOP-62 > 100 µM | HOP-92 > 100 µM | HT-29 > 100 µM | Hs-578T > 100 µM | IGROV-1 > 100 µM | K562 > 100 µM | KM12 > 100 µM | LOX IMVI > 100 µM | M14 > 100 µM | MCF7 > 100 µM | MDA-MB-435 > 100 µM | MDA-N > 100 µM | MOLT-4 > 100 µM | Malme-3M > 100 µM | NCI-H226 > 100 µM | NCI-H23 > 100 µM | NCI-H460 > 100 µM | NCI-H522 > 100 µM | NCI/ADR-RES > 100 µM | OVCAR-3 > 100 µM | OVCAR-4 > 100 µM | OVCAR-5 > 100 µM | OVCAR-8 > 100 µM | PC-3 > 100 µM | RPMI-8226 > 100 µM | RXF 393 > 100 µM | SF-268 > 100 µM | SF-295 > 100 µM | SK-MEL-28 > 100 µM | SK-MEL-5 > 100 µM | SN12C > 100 µM | SNB-19 > 100 µM | SR > 100 µM | SW-620 > 100 µM | U-251 > 100 µM | UACC-257 > 100 µM | UACC-62 > 100 µM | UO-31 > 100 µM
> 100 µM: HCT-15

CCc1c(-c2ccccc2)[nH]c2ccccc2c1=O
active: UO-31 0.0412 µM
28.2 µM: HCT-15
inactive: A498 33.4 µM | A549 13.4 µM | ACHN 36.7 µM | BT-549 59.4 µM | CAKI-1 19.8 µM | CCRF-CEM 72.4 µM | DU-145 76.9 µM | EKVX 81.1 µM | HCC 2998 80.9 µM | HCT-116 41.3 µM | HL-60 > 100 µM | HOP-62 47.4 µM | HT-29 57.7 µM | K562 28.6 µM | KM12 16.4 µM | LOX IMVI 48.1 µM | M14 35.6 µM | MCF7 57.1 µM | MDA-MB-231 70.6 µM | MDA-MB-435 46.2 µM | MDA-N 47.5 µM | MOLT-4 95.7 µM | Malme-3M 72.4 µM | NCI-H226 27.7 µM | NCI-H23 55.3 µM | NCI-H460 5.16 µM | OVCAR-3 54.1 µM | OVCAR-4 33.2 µM | OVCAR-5 > 100 µM | RPMI-8226 23.4 µM | RXF 393 27.1 µM | SF-268 80.7 µM | SF-539 50.5 µM | SK-MEL-28 67.9 µM | SK-MEL-2 71.1 µM | SK-MEL-5 27.4 µM | SK-OV-3 28.1 µM | SN12C > 100 µM | SNB-19 > 100 µM | SR 49.1 µM | T47D 46.5 µM | TK-10 44.8 µM | U-251 > 100 µM | UACC-257 64.7 µM | UACC-62 28.8 µM

O=C(O)CCCn1nnc2c(=O)[nH][nH]c(=O)c21
> 100 µM: HCT-15
inactive: 786-0 > 100 µM | A549 > 100 µM | ACHN > 100 µM | BT-549 > 100 µM | CAKI-1 > 100 µM | CCRF-CEM > 100 µM | COLO 205 > 100 µM | DU-145 > 100 µM | EKVX > 100 µM | HCC 2998 > 100 µM | HCT-116 > 100 µM | HL-60 > 100 µM | HOP-62 > 100 µM | HOP-92 > 100 µM | HT-29 > 100 µM | K562 > 100 µM | KM12 > 100 µM | LOX IMVI > 100 µM | M14 > 100 µM | MCF7 > 100 µM | MDA-MB-231 > 100 µM | MDA-MB-435 > 100 µM | MDA-N > 100 µM | MOLT-4 > 100 µM | Malme-3M > 100 µM | NCI-H23 > 100 µM | NCI-H460 > 100 µM | NCI/ADR-RES > 100 µM | OVCAR-3 > 100 µM | OVCAR-4 > 100 µM | OVCAR-5 > 100 µM | OVCAR-8 > 100 µM | PC-3 > 100 µM | RPMI-8226 > 100 µM | SF-295 > 100 µM | SK-MEL-28 > 100 µM | SK-MEL-2 > 100 µM | SK-MEL-5 > 100 µM | SN12C > 100 µM | SNB-19 > 100 µM | SR > 100 µM | TK-10 > 100 µM | U-251 > 100 µM | UACC-257 > 100 µM | UO-31 > 100 µM

CCCCCCOC(=O)C(N)Cc1ccc(OC)cc1 (stereo not given)
> 100 µM: HCT-15
inactive: 786-0 > 100 µM | A549 > 100 µM | ACHN > 100 µM | BT-549 > 100 µM | CAKI-1 > 100 µM | CCRF-CEM 26.6 µM | COLO 205 > 100 µM | DU-145 > 100 µM | EKVX > 100 µM | HCT-116 > 100 µM | HL-60 > 100 µM | HOP-62 > 100 µM | HOP-92 5.55 µM | HT-29 > 100 µM | Hs-578T > 100 µM | IGROV-1 > 100 µM | K562 > 100 µM | KM12 > 100 µM | LOX IMVI > 100 µM | M14 > 100 µM | MCF7 > 100 µM | MDA-MB-231 > 100 µM | MDA-MB-435 > 100 µM | MOLT-4 > 100 µM | Malme-3M > 100 µM | NCI-H226 > 100 µM | NCI-H23 > 100 µM | NCI-H460 > 100 µM | NCI-H522 > 100 µM | NCI/ADR-RES > 100 µM | OVCAR-3 > 100 µM | OVCAR-4 > 100 µM | OVCAR-5 > 100 µM | OVCAR-8 > 100 µM | PC-3 > 100 µM | RXF 393 > 100 µM | SF-268 > 100 µM | SF-295 > 100 µM | SF-539 > 100 µM | SK-MEL-28 > 100 µM | SK-MEL-2 > 100 µM | SK-MEL-5 > 100 µM | SK-OV-3 > 100 µM | SN12C > 100 µM | SNB-19 > 100 µM | SNB-75 > 100 µM | SR > 100 µM | SW-620 > 100 µM | T47D > 100 µM | TK-10 > 100 µM | U-251 > 100 µM | UACC-257 > 100 µM | UACC-62 > 100 µM | UO-31 > 100 µM
